According to US20150005237A1, “PEPTIDIC INHIBITOR OF SIGNAL TRANSMISSION FROM G-ALPHA-S TO G-ALPHA-I-COUPLED RECEPTOR CASCADES” (UNIVERSITÄT INNSBRUCK, priority 2011, published 2015):
Where no end group is shown, it is not given here.

What was measured:
Format in all cases: cell-based
[1] = system: Erk1/2 phosphorylation in δOR-HEK293 cells; experiment: MAPK-phosphorylation assay (Erk1/2) in δOR-HEK293 cells; details: for SNC80-induced Erk1/2 phosphorylation (amplitude and duration): pre-treatment before SNC80
Procedure: δOR-HEK293 cells were grown in 12 or 24 well plate formats (DMEM supplemented with 10% FBS). Either 24 or 48 hours after splitting or co-transfection in overexpression studies [transfected with constructs encoding the regulatory (RIIβ) or catalytic subunits (PKAc) of PKA] confluent cells were treated with inhibitors (KT5720 for 60 minutes, pertussis toxin for 16 hours), chemical modulators (forskolin, 6-MBC-cAMP, Sp-5,6-DCI-cBIMPS, Sp-8-PIP-cAMPs, 2-Cl-8-MA-cAMP [all for 15 minutes] or Rp-cAMP for 60 minutes) and/or the δOR ligand SNC80 (for either 3, 6, 10 or 15 minutes). cAMP analogs purchased from Biolog (6-MBC-cAMP, #M012; Sp-5,6-DCI-cBIMPS, #D014; Sp-8-PIP-cAMPs, #P005, 2-Cl-8-MA-cAMP, #C080; Rp-cAMP, #A002S) (see Bobrovskaya et al., Cell. Signal. 19, 1141-1149 (2007); Nguyen et al., Cell. Signal. 16, 1141-1151 (2004); Maronde et al., J. Pineal Res. 27, 170-182 (1999); Ogreid et al., Eur. J. Biochem. 181, 19-31 (1989); Poppe et al., Nat. Methods 5, 277-278 (2008)).
Following treatments at 37° C. for 3, 6, 10 or 15 minutes the reactions were stopped by direct addition of Laemmli sample buffer. Equal amounts of protein (lysates normalized to loading control proteins) were subjected to polyacrylamide gel electrophoresis followed by immunoblotting (IB). To analyze the phosphorylation of Erk1/2 we applied the Phospho-p44/42 MAP Kinase antibody (Cell Signaling Technology, #9101). Quantitative densitometry of immuno blot bands was performed using the program ImageQuant 5.2 (Molecular Dynamics).

trimeric Gαi:βγ complex = experiment: BRET assay of Gαi1:Gγ2 conformational rearrangement in δOR-HEK293 cells
Text: δOR-HEK293 cells grown in DMEM supplemented with 10% FBS were transiently transfected with the following constructs: For measurements of the interactions of G protein subunits among each other and with the receptor we transfected Gαi1 with the Renilla luciferase (Rluc) inserted at amino acid position 91 and the UV-shifted GFP variant GFP10 (substitutions: P64L, S147P, and S202P) fused to the C-terminus of […] or the UV-shifted variant GFP2 (substitution: F64L) fused to the C-terminus of the δOR. In overexpression studies, we coexpressed regulatory (RIIβ) or catalytic subunits (PKAc) of PKA. […] Total fluorescence and bioluminescence were evaluated for each well using a FlexStation2 (Molecular Devices) and Mithras LB 940 (Berthold Technologies), respectively. uvGFP fluorescence was excited at 400 nm and read at 515 nm. Fluorescence values were corrected by subtracting the auto-fluorescence of cells not expressing uvGFP. BRET between Rluc and GFP2 or GFP10 was measured after the addition of 5 μM Rluc substrate DeepBlueC (bisdeoxy-coelenterazine, PerkinElmer, Lifescience). BRET signals were derived from the emission detected with the energy acceptor filter (515±15 nm; GFP2/10) divided by the emission detected with the energy donor filter (410±40 nm; Rluc/Rluc3). […]

R:Gαi3 complexes = experiment: cAMP agarose precipitation of R:Gαi3 complexes from COS7 cells; details: forskolin pre-treatment 15 minutes, 2AHA-cAMP-coupled agarose beads
Procedure: HEK293, U2OS cells and total brains of mice were homogenized using a Potter S (B. Braun Biotech International) with 15 strikes (lysis buffer: 10 mM sodium phosphate pH 7.2, 150 mM NaCl, 0.05% Triton X100 supplemented with standard protease inhibitors). We clarified the lysate (13000 rpm, 15 min) and precipitated PKA regulatory subunit associated protein complexes with PKA selective 8-AHA-cAMP agarose and Rp-8-AHA-cAMP agarose resin (Biolog, […]) for two hours at 4° C. As negative control experiment we added excess of cAMP (5 mM) to the brain lysates to mask the cAMP binding sites in the R subunits for precipitation. Resin associated proteins were washed four times with lysis buffer and eluted with Laemmli sample buffer. Equal amounts of protein (lysates normalized to loading control proteins) were subjected to polyacrylamide gel electrophoresis followed by immunoblotting with indicated antibodies. We performed densitometric quantification of RIIβ, PKAc and Gαi3 (in each case normalized on the most abundant precipitated protein from the same immunoblot (n=3) to compare complex formation and fold enrichment between holoenzyme (precipitated with Rp-8-AHA-cAMP) and activated R complexes (precipitated with 8-AHA-cAMP).
We then tested whether pre-dissociating endogenous R/Reg and PKAc/Cat subunits would change the stoichiometry of R:Gαi3 or R:PDK1 complexes. […]

[2] = biological target: T1, RIIβ-RlucF[1]:PKAc-RlucF[2] complex (Rattus norvegicus, UniProt P12369); experiment: Renilla luciferase PCA of PKA holoenzyme dissociation in HEK293T cells; details: HEK293T cells stably expressing the PKA reporter
T1 construct: Renilla luciferase PCA fragment F[1]; expressed in transfected cells
T1 sequence (P12369 whole entry, the tested form may be a part, one chain of several): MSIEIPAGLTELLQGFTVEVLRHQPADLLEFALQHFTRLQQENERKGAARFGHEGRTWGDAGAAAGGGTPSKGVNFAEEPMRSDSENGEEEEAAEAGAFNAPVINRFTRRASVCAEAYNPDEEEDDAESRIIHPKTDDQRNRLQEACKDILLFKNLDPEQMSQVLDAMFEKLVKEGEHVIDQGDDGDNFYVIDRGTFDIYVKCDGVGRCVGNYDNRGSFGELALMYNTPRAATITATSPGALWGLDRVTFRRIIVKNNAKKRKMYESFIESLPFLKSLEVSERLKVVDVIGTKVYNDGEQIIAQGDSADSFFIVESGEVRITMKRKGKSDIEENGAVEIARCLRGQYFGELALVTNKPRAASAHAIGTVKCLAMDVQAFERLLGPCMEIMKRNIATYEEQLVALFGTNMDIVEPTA
Procedure: We have generated a stable HEK293T cell line coexpressing the PCA fusion proteins RIIβ-Rluc-F[1] and PKAc-RlucF[2], as previously described. All cells were grown in DMEM supplemented with 10% FBS. We treated confluent HEK293T cells (stably expressing the PKA reporter) grown in 24 well plate format with varying concentrations and combinations of cAMP analogs 6-MBC-cAMP and Sp-5,6-DCI-cBIMPS (15 min; Biolog, Germany). We pretreated confluent HEK293T cells (stably expressing the PKA reporter) grown in 24 well plate format with 250 μM of Rp-cAMP (60 minutes) or with 6-MBC-cAMP and Sp-5,6-DCI-cBIMPS (=RII selective, each 50 μM; 15 min). We pretreated confluent HEK293T cells (stably expressing the PKA reporter) grown in 24 well plate format for 30 minutes with TAT or Reggai fusion peptides (˜3 μM) followed by exposure to forskolin (100 μM; 15 min). Following treatment, growth medium was exchanged and cells were resuspended in 350 μl of PBS. 100 μl of cell suspensions were transferred to 96-well plates and subjected to bioluminescence analysis using the LMaxTMII384 luminometer (Molecular Devices). Rluc bioluminescence signals were integrated for 10 seconds following addition of the Rluc substrate benzyl-coelenterazine (5 μM; Nanolight). […]

PKA kinase activity = experiment: CREB phosphorylation monitoring of PKA kinase activity; details: conditions used for the Erk1/2 experiments
Procedure: We also tested the impact of R:Gαi complex formation on the evolutionary conserved route of signal transmission from Gαi to MAPK9. […] Pre-treatment with forskolin potentiated the SNC80-induced Erk1/2 phosphorylation (FIG. 2c). […] To exclude the possibility that PKA kinase activity could account for this potentiation, we pre-treated cells with the PKA inhibitor KT5720 (unless noted otherwise, all subsequent experiments were carried out in the presence of this kinase activity inhibitor). We confirmed that KT5720 inhibits PKA kinase activity under the conditions used by monitoring CREB phosphorylation (activated independently of Gαi signalling).

Gαs- to Gαi-cascades = experiment: Reggai peptide applied in living HEK293 cells: signal transmission from Gαs- to Gαi-cascades; details: HEK293 cell line
Text: The present inventors identified and successfully applied the Reggai peptide directly in the living cells, in particular cell culture, HEK293 cell line, and changed the original and conserved Reggai sequence in a model organism (budding yeast) to prevent signal transmission from Gαs- to Gαi-cascades. The Reggai peptide had no effect on sole activation of either cascade, just in the case of simultaneous activation of both types of receptors the Gαs triggered and PKA-mediated elevation of Gαi activities was abolished. In the mammalian system the present inventors used biochemical tools to measure changes of cAMP levels, G protein activities and MAPK activation downstream of Gαi-coupled receptors upon formation of the dynamic interaction between PKA and Gαi.

Compound: C=CCN1C[C@H](C)N([C@H](c2ccc(C(=O)N(CC)CC)cc2)c2cccc(OC)c2)C[C@H]1C [SNC80]
- Erk1/2 phosphorylation ([1]; agonist alone): large but transient increase
- BRET between Gαi1 and Gγ2 (trimeric Gαi:βγ complex; agonist alone): decrease

Compound: C=C[C@@]1(C)CC(=O)[C@]2(O)[C@@]3(C)[C@@H](O)CCC(C)(C)[C@@H]3[C@H](O)[C@H](OC(C)=O)[C@@]2(C)O1 [forskolin]
- fold enrichment of R:Gαi3 complexes (R:Gαi3 complexes): 3.8 (SD±0.99) fold
- conformation of the trimeric G-protein complex (trimeric Gαi:βγ complex; treatment alone, without SNC80): no effect

Compound: OC1C2OP(O)(=S)OCC2OC1n1cnc2cc(Cl)c(Cl)cc21 (stereo not drawn) [Sp-5,6-DCI-cBIMPS]
- SNC80-induced Erk1/2 phosphorylation (amplitude and duration) [1]: potentiated

Compound: Nc1ncnc2c1nc(N1CCCCC1)n2[C@@H]1O[C@@H]2COP(=O)(O)O[C@H]2[C@H]1O [8-PIP-cAMP]
- SNC80-induced Erk1/2 phosphorylation (amplitude and duration) [1]: no effect

Compound: CNc1nc2c(N)nc(Cl)nc2n1C1O[C@@H]2COP(=O)([O-])O[C@H]2[C@H]1O.[Na+] (stereo partly drawn) [2-Cl-8-MA-cAMP]
- SNC80-induced Erk1/2 phosphorylation (amplitude and duration) [1]: no effect

Compound: Nc1ncnc2c1ncn2[C@@H]1O[C@@H]2COP(O)(=S)O[C@H]2[C@H]1O (stereo partly drawn) [Rp-cAMP]
- SNC80+RegII subunit activator and SNC80+forskolin mediated Erk1/2 phosphorylation ([1]; pre-treatment 250 μM, 60 minutes): decreased
- PKA holoenzyme dissociation [2]: prevented

Compound: 6-MBC-cAMP
- SNC80-induced Erk1/2 phosphorylation (amplitude and duration) [1]: potentiated

Compound: CCCCCCOC(=O)[C@]1(O)C[C@@H]2O[C@@]1(C)n1c3ccccc3c3c4c(c5c6ccccc6n2c5c31)C(=O)NC4 [KT5720]
- PKA kinase activity (CREB phosphorylation) (PKA kinase activity): inhibits

Compound: QGDSADSFFIVESGE (not fully specified; listed as Homo sapiens) [Reggai peptide, PKA RIIβ-derived 15 amino acid peptide; applied to cells as fusion with GST, TAT and Flag]
- sole activation of either cascade (Gαs or Gαi) (Gαs- to Gαi-cascades; only one cascade activated): no effect
- Gαs triggered and PKA-mediated elevation of Gαi activities (Gαs- to Gαi-cascades; simultaneous activation of both types of receptors): abolished
- potentiation of SNC80-mediated Erk1/2 phosphorylation using RII/RegII subunit activators ([1]; fusion peptides ~3 μM, 30 minutes): prevented
- PKA holoenzyme dissociation [2]: Neither Reggai nor TAT control peptide pre-treatment of HEK293T cells had any effect
